Several values for one entry are separate records, joined by “and”; a condition that tells them apart may be missing. Identical values can stand only once. Like-named read-outs stand apart in the source and are kept apart here.
How the values were obtained:
[1] = test system: IFN-γ production by ConA-stimulated splenocytes; test: IFN-γ production by ConA-stimulated splenocytes (EIA); format: in vivo, mice; conditions: Spontaneous
[2] = test system: M. tuberculosis strain H37Rv; format: in vivo, mice; conditions: for CFUs of BCG per ml of Lung Homogenate, MEAN / CFUs of BCG per ml of Lung Homogenate, MEDIAN / CFUs of BCG per ml of Lung Homogenate, individual mice M1-M5: day 61
lymphocytes = format: in vivo, human
[3] = test system: IL-4 production by OvA-stimulated splenocytes; test: OvA-stimulated production of IL-4 by splenocytes of OvA-immunized mice
Method: The OvA was administered subcutaneously to the crest in a volume of 200 μl. Mice were immunized on day 1 with OvA in complete Freund's adjuvant (CFA; Sigma) and on day 15 with the antigen in incomplete Freund's adjuvant (IFA; Sigma). The immune response was analyzed on day 29. Mice were also immunized with 10 μg/mouse of OvA using Alum as an adjuvant.
Thymuses and spleens from mice of each treatment group were pooled, and then minced with scissors. The minced tissues were suspended in sterile PBS to form cell suspensions, filtered through a double gauze layer and centrifuged. Cells were washed twice with PBS, re-suspended in RPMI-1640 (Sigma) with 2.0 mM of L-glutamine, 50 μM of mercaptoethanol, and 10 μg/ml of gentamycin (complete medium); and cell counts were made. (The splenocyte suspension was washed with a 0.86% solution of NH4Cl to pre-lyse erthrocytes.)
Assessment of Mitogen- and Antigen-Induced Production of Cytokines: Thymic cells (1×10^6/well) in complete medium with 2% FCS were stimulated with ConA (0, 1, and 2 μg/ml). […] Concentrations of IL-2, IL-4, IL-10, IL-12R40 and IFNγ in the supernatants were determined by solid-phase EIA with EIA Expansion Kits, available from BD Biosciences (formerly Pharmingen), in accordance with the manufacturer's instructions.

[4] = group 3: BCG + 0.01 μg SCV-07 D1-D5
[5] = group 4: BCG + 0.01 μg SCV-07 D1-D30
[6] = group 5: BCG + 0.01 μg SCV-07 D1-5, D7, 11, 14, 18, 21, 25, 28
[7] = group 6: BCG + 0.01 μg SCV-07 D6-D30
[8] = group 7: BCG + 0.20 μg SCV-07 D1-D5
[9] = group 8: BCG + 0.20 μg SCV-07 D1-D30
[10] = group 9: BCG + 0.20 μg SCV-07 D1-5, D7, 11, 14, 18, 21, 25, 28
[11] = group 10: BCG + 0.20 μg SCV-07 D6-D30
[12] = group 11: BCG + 2.0 μg SCV-07 D1-D5
[13] = group 12: BCG + 2.0 μg SCV-07 D1-D30
[14] = group 13: BCG + 2.0 μg SCV-07 D1-5, D7, 11, 14, 18, 21, 25, 28
[15] = group 14: BCG + 2.0 μg SCV-07 D6-D30
[16] = Healthy of group 3 after vaccination
[17] = Patients of group 2 (SCV-07 + vaccine), After vaccination

N[C@H](CCC(=O)N[C@@H](Cc1c[nH]c2ccccc12)C(=O)O)C(=O)O [SCV-07, γ-D-glutamyl-L-tryptophan]
IFN-γ ([1]; 0.1 μg/kg i/p): 1393 pg/mL
IFN-γ ([1]; 0.1 μg/kg per os): 0 pg/mL
IFN-γ ([1]; 1.0 μg/kg i/p): 1738 pg/mL
IFN-γ ([1]; 1.0 μg/kg per os): 1629 pg/mL
IFN-γ ([1]; 10.0 μg/kg per os): 0 pg/mL
IFN-γ ([1]; 100.0 μg/kg per os): 0 pg/mL
dose with optimal enhancing effect of SCV-07 for vaccination with BCG ([2]; about 8-10 μg/kg): 0.20 µg
CFUs of BCG per ml of Lung Homogenate, MEAN [2, 4]: 5.0 log10 CFU per milliliter
CFUs of BCG per ml of Lung Homogenate, MEDIAN [2, 4]: 4.9 log10 CFU per milliliter
CFUs of BCG per ml of Lung Homogenate, individual mice M1-M5 [2, 4]: 4.8 log10 CFU per milliliter (2×) and 5.3 log10 CFU per milliliter (2×) and 4.9 log10 CFU per milliliter
CFUs of BCG per ml of Lung Homogenate, MEAN [2, 5]: 4.8 log10 CFU per milliliter
CFUs of BCG per ml of Lung Homogenate, MEDIAN [2, 5]: 4.9 log10 CFU per milliliter
CFUs of BCG per ml of Lung Homogenate, individual mice M1-M5 [2, 5]: 5.1 log10 CFU per milliliter and 4.8 log10 CFU per milliliter and 5.0 log10 CFU per milliliter and 4.3 log10 CFU per milliliter
CFUs of BCG per ml of Lung Homogenate, MEAN [2, 6]: 4.9 log10 CFU per milliliter
CFUs of BCG per ml of Lung Homogenate, MEDIAN [2, 6]: 5.0 log10 CFU per milliliter
CFUs of BCG per ml of Lung Homogenate, individual mice M1-M5 [2, 6]: 5.1 log10 CFU per milliliter (2×) and 5.0 log10 CFU per milliliter and 4.6 log10 CFU per milliliter and 4.8 log10 CFU per milliliter
CFUs of BCG per ml of Lung Homogenate, MEAN [2, 7]: 5.5 log10 CFU per milliliter
CFUs of BCG per ml of Lung Homogenate, MEDIAN [2, 7]: 5.5 log10 CFU per milliliter
CFUs of BCG per ml of Lung Homogenate, individual mice M1-M5 [2, 7]: 5.4 log10 CFU per milliliter and 5.5 log10 CFU per milliliter (2×) and 5.7 log10 CFU per milliliter
CFUs of BCG per ml of Lung Homogenate, MEAN [2, 8]: 4.9 log10 CFU per milliliter
CFUs of BCG per ml of Lung Homogenate, MEDIAN [2, 8]: 5.0 log10 CFU per milliliter
CFUs of BCG per ml of Lung Homogenate, individual mice M1-M5 [2, 8]: 4.8 log10 CFU per milliliter (2×) and 5.0 log10 CFU per milliliter (2×) and 5.1 log10 CFU per milliliter
CFUs of BCG per ml of Lung Homogenate, MEAN [2, 9]: 4.6 log10 CFU per milliliter
CFUs of BCG per ml of Lung Homogenate, MEDIAN [2, 9]: 4.6 log10 CFU per milliliter
CFUs of BCG per ml of Lung Homogenate, individual mice M1-M5 [2, 9]: 4.5 log10 CFU per milliliter and 4.7 log10 CFU per milliliter (2×) and 4.6 log10 CFU per milliliter
CFUs of BCG per ml of Lung Homogenate, MEAN [2, 10]: 4.8 log10 CFU per milliliter
CFUs of BCG per ml of Lung Homogenate, MEDIAN [2, 10]: 4.8 log10 CFU per milliliter
CFUs of BCG per ml of Lung Homogenate, individual mice M1-M5 [2, 10]: 4.6 log10 CFU per milliliter and 4.4 log10 CFU per milliliter and 4.9 log10 CFU per milliliter and 5.1 log10 CFU per milliliter and 4.8 log10 CFU per milliliter
CFUs of BCG per ml of Lung Homogenate, MEAN [2, 11]: 5.3 log10 CFU per milliliter
CFUs of BCG per ml of Lung Homogenate, MEDIAN [2, 11]: 5.3 log10 CFU per milliliter
CFUs of BCG per ml of Lung Homogenate, individual mice M1-M5 [2, 11]: 5.4 log10 CFU per milliliter and 5.2 log10 CFU per milliliter
CFUs of BCG per ml of Lung Homogenate, MEAN [2, 12]: 5.0 log10 CFU per milliliter
CFUs of BCG per ml of Lung Homogenate, MEDIAN [2, 12]: 5.1 log10 CFU per milliliter
CFUs of BCG per ml of Lung Homogenate, individual mice M1-M5 [2, 12]: 5.1 log10 CFU per milliliter (3×) and 4.8 log10 CFU per milliliter (2×)
CFUs of BCG per ml of Lung Homogenate, MEAN [2, 13]: 5.0 log10 CFU per milliliter
CFUs of BCG per ml of Lung Homogenate, MEDIAN [2, 13]: 5.1 log10 CFU per milliliter
CFUs of BCG per ml of Lung Homogenate, individual mice M1-M5 [2, 13]: 5.1 log10 CFU per milliliter and 4.8 log10 CFU per milliliter and 5.3 log10 CFU per milliliter (2×) and 4.6 log10 CFU per milliliter
CFUs of BCG per ml of Lung Homogenate, MEAN [2, 14]: 4.9 log10 CFU per milliliter
CFUs of BCG per ml of Lung Homogenate, MEDIAN [2, 14]: 4.8 log10 CFU per milliliter
CFUs of BCG per ml of Lung Homogenate, individual mice M1-M5 [2, 14]: 4.8 log10 CFU per milliliter (2×) and 4.7 log10 CFU per milliliter and 5.1 log10 CFU per milliliter and 5.3 log10 CFU per milliliter
CFUs of BCG per ml of Lung Homogenate, MEAN [2, 15]: 5.4 log10 CFU per milliliter
CFUs of BCG per ml of Lung Homogenate, MEDIAN [2, 15]: 5.4 log10 CFU per milliliter
CFUs of BCG per ml of Lung Homogenate, individual mice M1-M5 [2, 15]: 5.3 log10 CFU per milliliter (2×) and 5.4 log10 CFU per milliliter and 5.5 log10 CFU per milliliter
CD3+ (%) (lymphocytes; [16]): 33.10 ± 1.88%
CD4+ (%) (lymphocytes; [16]): 22.86 ± 1.94%
CD4+/CD8+ conv. units (lymphocytes; [16]): 1.203 ± 0.094 conv. units
CD8+ (%) (lymphocytes; [16]): 19.71 ± 1.53%
CD16+ (%) (lymphocytes; [16]): 15.19 ± 1.24%
CD95+ (%) (lymphocytes; [16]): 14.62 ± 1.60%
CD3+ (%) (lymphocytes; [17]): 29.60 ± 2.41%
CD4+ (%) (lymphocytes; [17]): 20.13 ± 1.65%
CD4+/CD8+ conv. units (lymphocytes; [17]): 1.111 ± 0.086 conv. units
CD8+ (%) (lymphocytes; [17]): 18.27 ± 1.01%
CD16+ (%) (lymphocytes; [17]): 13.07 ± 1.18%
CD95+ (%) (lymphocytes; [17]): 12.60 ± 1.18%
levels of IL-4 production in supernatants of OvA-stimulated splenocytes ([3]; OvA/Alum, all animal groups): below the sensitivity of the test system
levels of IL-4 in supernatants of OvA-stimulated splenocytes ([3]; OvA/FA, all animals, below the sensitivity of the test-system): < 6 pg/mL

Source: patent publication US20090074815A1, “Immunomodulator Compounds as Vaccine Enhancers” (SCICLONE PHARMACEUTICALS, INC., priority 2005, published 2009)
